Values after ≈ are worked out from the molar mass of the structure shown. Where no end group is shown, it is not given here.
Assays:
[1] = Individual component solubilities in t-butanol/water solutions (HPLC); settings: about 37° C.; for solubility at 30 min: 37 °C, thermodynamic from solid
Description: (§1) Aliquots of each lipid and peptide were accurately weighed into 1.5 ml Eppendorf tubes. […] To each tube 0.2 ml of solvent was added. Each tube was vortexed and then bath sonicated for several minutes to facilitate dissolution. Samples were then placed in a 37° C. bath for approximately 30 minutes and then removed and placed on the counter for up to 30 minutes. […] Three independent Eppendorf tubes were prepared and tested for each solute-solvent combination. Visual observations were made of each tube as to whether they appeared a) clear (i.e., apparently fully soluble), b) to contain non-dissolved material, or c) indeterminate. Small aliquots of each tube were then taken, diluted in the HPLC running buffer, and analyzed by HPLC. HPLC was performed using a CIS column by established methods.

[2] = Achievable dissolution concentrations of components in 60% TBA cosolvent without NaCl; settings: for Measured Concentration, 1: replicate 1; for Measured Concentration, 2: replicate 2; for Measured Concentration, 3: replicate 3; for Measured Concentration, AVG: room temperature, individual component
physchem = settings: 37 °C, aqueous with cosolvent or surfactant or cyclodextrin, thermodynamic from solid
Description: as §1

[3] = 50% t-butanol in water, aqueous with cosolvent or surfactant or cyclodextrin
[4] = 80% t-butanol in water, organic solvent or mixture
[5] = 90% t-butanol in water, organic solvent or mixture
[6] = 95% t-butanol in water, organic solvent or mixture
[7] = 100% t-butanol, organic solvent or mixture

CCCCCCCCCCCCCCCCO [CA, cetyl alcohol]
solubility at 30 min [1, 3]: 14 mg/mL (≈ 57.7 mM)
solubility at 30 min [1, 4]: > 224 mg/mL
solubility at 30 min [1, 5]: > 229 mg/mL
solubility at 30 min [1, 6]: > 251 mg/mL
solubility at 30 min [1, 7]: > 270 mg/mL

CCCCCCCCCCCCCCCC(=O)OC[C@H](COP(=O)([O-])OCC[N+](C)(C)C)OC(=O)CCCCCCCCCCCCCCC [DPPC, dipalmitoyl phosphatidylcholine]
solubility at 30 min [1, 3]: > 49 mg/mL
solubility at 30 min [1, 4]: > 133 mg/mL
solubility at 30 min [1, 5]: > 145 mg/mL
solubility at 30 min [1, 6]: > 150 mg/mL
solubility at 30 min [1, 7]: > 150 mg/mL
Measured Concentration, 1 [2]: 34.8 mg/mL
Measured Concentration, 2 [2]: 35.0 mg/mL
Measured Concentration, 3 [2]: 35.2 mg/mL
Measured Concentration, AVG [2]: 35.0 mg/mL

CCCCCCCC/C=C\CCCCCCCC(=O)O[C@H](COC(=O)CCCCCCCCCCCCCCC)COP(=O)(O)OCC(O)CO (some centres unmarked) [POPG, palmitoyloleoyl phosphatidylglycerol]
Solubility ([1]; 50% t-butanol in water): >47 mg/mL
Solubility ([1]; 80% t-butanol in water): >119 mg/mL
Solubility ([1]; 90% t-butanol in water): >160 mg/mL
Solubility ([1]; 95% t-butanol in water): 34 mg/mL (≈ 45.4 mM)
Solubility ([1]; 97.5% t-butanol in water): 20 mg/mL (≈ 26.7 mM)
Solubility ([1]; 99% t-butanol in water): <5 mg/mL
Solubility ([1]; 100% t-butanol): <5 mg/mL
Measured Concentration, 1 [2]: 298.4 mg/mL
Measured Concentration, 2 [2]: 283.7 mg/mL
Measured Concentration, 3 [2]: 290.6 mg/mL
Measured Concentration, AVG [2]: 290.9 mg/mL

KLLLLKLLLLKLLLLKLLLLK [KL4]
Solubility (physchem): > 67 mg/mL

From patent US7582312B2, “Methods to produce lung surfactant formulations via lyophilization and formulations and uses thereof” (Discovery Laboratories, Inc., priority 2004, dated 2009)
